The text below walks through data of ChEMBL document CHEMBL1133412, “Rational design, synthesis and structure-activity relationships of antitumor (E)-2-benzylidene-1-tetralones and (E)-2-benzylidene-1-indanones” (Bioorg Med Chem Lett, 2000).

What all share (format): functional, cell-based
Test [1] relates to NIH3T3. The experiment in a line: Cytotoxicity evaluated against NIH3T3 tumor cell lines; Significant activity. Conditions: Mus musculus.
Test [2] relates to B16. The experiment in a line: Cytotoxicity was evaluated against B16 tumor cell lines; Significant activity. To be noted: Mus musculus.
Test [3] relates to Jurkat. The test is described as follows: In vitro test for antitumor activity against human Jurkat cell line using a formazan dye (MTT) conversion assay.
Test [4] relates to HL-60. The experiment in a line: Cytotoxicity evaluated against HL-60 tumor cell lines; Significant activity. To be noted: Homo sapiens.
Test [5] has as its system NCI-H596. The experiment in a line: Cytotoxicity evaluated against H596 tumor cell lines; Significant activity. To be noted: Homo sapiens.
Test [6] deals with CCRF-CEM. The test is described as follows: Cytotoxicity evaluated against CEM tumor cell lines; Significant activity. Conditions: Homo sapiens.
For test [7], the system named is L1210. The experiment in a line: Cytotoxicity evaluated against L1210 tumor cell lines; Significant activity. Conditions: Mus musculus.
For test [8], the system named is MCF7. The experiment in a line: Cytotoxicity evaluated against MCF-7 tumor cell lines; Significant activity. Conditions: Homo sapiens.
In test [9] the test system is WI-38. The experiment in a line: Cytotoxicity evaluated against WI38 tumor cell lines; Significant activity. To be noted: Homo sapiens.
For test [10], the system named is A549. The test is described as follows: Cytotoxicity evaluated against A549 tumor cell lines; significant activity. Conditions: Homo sapiens.
For test [11], the system named is K562. The test is described as follows: Cytotoxicity evaluated against K562 tumor cell lines; Significant activity. To be noted: Homo sapiens.
For test [12], the system named is NCI-H292. The experiment in a line: Cytotoxicity evaluated against H292 tumor cell lines; Significant activity. Conditions: Homo sapiens.
Test [13] has as its system MOLT-4. The test is described as follows: Cytotoxicity was evaluated against Molt-4 tumor cell lines. To be noted: Homo sapiens.
Test [14] relates to WIL2. The test is described as follows: Cytotoxicity evaluated against WIL2 tumor cell lines; Significant activity. Conditions: Homo sapiens.

The structures appear in SMILES notation.

For the molecule `COc1cc2c(c(N)c1OC)C(=O)/C(=C/c1cc(C)c(N)c(C)c1)C2`, the Cytotoxicity result in test [1], in test [2], in test [4], in test [5], in [6] and in test [7] was “Significant activity” throughout. Moreover, the Cytotoxicity result in [8], in test [9], in test [10], in [11], in [12] and in [13] was “Significant activity” throughout. For the same molecule, in test [14], the Cytotoxicity result is “Significant activity”. For the same molecule, in [3], the concentration for half-maximal inhibition (IC50) (commonly the concentration that inhibits the measured activity by half) stood at 23.5 nM.
Take `COc1cc2c(cc1OC)C(=O)/C(=C/c1cccc([N+](=O)[O-])c1)CC2`: the Cytotoxicity entry in test [1], in [2], in test [4], in test [5], in [6] and in test [7] was “Significant activity” throughout. For the same molecule, the Cytotoxicity result in test [8], in [9], in test [10], in [11], in test [12] and in test [13] was “Significant activity” throughout. Also, the Cytotoxicity result in test [14] was “Significant activity”. In test [3], this molecule gave an IC50 of 9000 nM.
On to `COc1cc2c(cc1O)C/C(=C\c1cc(C)c(O)c(C)c1)C2=O`, for which the Cytotoxicity entry in [1], in test [2], in test [4], in [5], in test [6] and in test [7] was “Significant activity” in each case. In addition, the Cytotoxicity entry in test [8], in test [9], in [10], in [11], in test [12] and in test [13] was “Significant activity” throughout. The Cytotoxicity result in [14] was “Significant activity”. The IC50 in test [3] was 530 nM.
Regarding `COc1cc2c(cc1OC)C(=O)/C(=C/c1cccc(C)c1)C2`, the Cytotoxicity entry in [1], in [2], in test [4], in test [5], in test [6] and in test [7] was “Significant activity” in each case. The Cytotoxicity entry in test [8], in test [9], in test [10], in test [11], in test [12] and in test [13] was “Significant activity” in each case. The Cytotoxicity entry in test [14] was “Significant activity”. Besides, the IC50 in test [3] is 1800 nM.
